Experimental data as given in US9724358B2, “Minocycline compounds and methods of use thereof” (Paratek Pharmaceuticals, Inc., priority 2008, dated 2017).
Marks after values point to notes of the source that are not given here.

Assays:
GNR = test: Phase 2 CSSSI study, clinical outcome by organism: GNR; assay type: in vivo, gram-negative rods; details: ME population
Method: (§1) A randomized (1:1), controlled, evaluator-blinded Phase 2 study comparing 9-[(2,2-dimethyl-propyl amino)-methyl-minocycline (compound 1) and linezolid (Zyvox™) for the treatment of complicated skin and skin structure infections (CSSSI) was conducted. Patients with CSSSI who required initial intravenous (IV) therapy and met inclusion and exclusion criteria were enrolled at 11 centers in the US and were randomized to receive either compound 1 (100 mg Q24 h IV with 200 mg Q24 h oral step-down) or linezolid (600 mg Q12 h IV with 600 mg Q12 h oral step-down).
(§2) An infecting pathogen was defined as an isolate derived from the last positive culture taken from the site of infection under study prior to and including day 1.

[1] = Phase 2 CSSSI study, safety: ALT level; assay type: in vivo, human
Method: as §1
(§3) At each of the four structured evaluations, the blinded evaluator assessed the subject, with particular attention to scoring the findings at the primary site of infection and obtaining cultures. Clinical and microbiologic outcomes were determined using these assessments. Primary evaluation criteria was safety and tolerability compared with linezolid. Secondary evaluation criteria was efficacy of compound 1 compared to linezolid, as well as pharmacokinetics of compound 1.

[2] = Phase 2 CSSSI study, safety and adverse events by patient; assay type: in vivo, human
Method: as §1, §3
In addition, the patients in the study were monitored for adverse events (AE). An adverse event is any untoward medical occurrence temporally associated with the use of a medical product in a subject, whether or not the event is considered causally related to the medical product.

B-Strep = test: Phase 2 CSSSI study, clinical outcome by organism: B-Strep; assay type: in vivo, B-streptococci
Method: as §1, §2

Mixed GPC = test: Phase 2 CSSSI study, clinical outcome by organism: Mixed GPC; assay type: in vivo; details: ME population
Method: as §1, §2

[3] = EOT, ALT abnormal at enrollment
[4] = EOT, ALT within normal limits at enrollment
[5] = TOC, ALT abnormal at enrollment
[6] = TOC, ALT within normal limits at enrollment
[7] = max on treatment, ALT abnormal at enrollment
[8] = max on treatment, ALT within normal limits at enrollment
[9] = probably or possibly drug-related by blinded evaluator

## CC(=O)NCC1CN(c2ccc(N3CCOCC3)c(F)c2)C(=O)O1 (stereo not drawn) [Linezolid, N-[[3-(3-fluoro-4-morpholinophenyl)-2-oxooxazolidin-5-yl]methyl]acetamide, reference compound]
GNR
  Clinical outcome Failure (number): 0
  Clinical outcome Success (number): 7
[1]; [3]
  ALT Increase: >2x ULN and 2x baseline (number): 0
  ALT NS: >ULN and <2x baseline (%): (63.6%)
  ALT NS: >ULN and <2x baseline (number): 7
  ALT Within normal limits (%): (36.4%)
  ALT Within normal limits (number): 4
[1]; [4]
  ALT 1x-2x (%): (10.0%)
  ALT 1x-2x (number): 9
  ALT 2x-3x (%): (1.1%)
  ALT 2x-3x (number): 1
  ALT >3x (%): (1.1%)
  ALT >3x (number): 1
  ALT Within normal limits (%): (87.8%)
  ALT Within normal limits (number): 79
[1]; [5]
  ALT Increase: >2x ULN and 2x baseline (%): (8.3%)
  ALT Increase: >2x ULN and 2x baseline (number): 1
  ALT NS: >ULN and <2x baseline (%): (50.0%)
  ALT NS: >ULN and <2x baseline (number): 6
  ALT Within normal limits (%): (41.7%)
  ALT Within normal limits (number): 5
[1]; [6]
  ALT 1x-2x (%): (5.1%)
  ALT 1x-2x (number): 4
  ALT 2x-3x (number): 0
  ALT >3x (number): 0
  ALT Within normal limits (%): (94.9%)
  ALT Within normal limits (number): 75
[1]; [7]
  ALT Increase: >2x ULN and 2x baseline (%): (16.7%)
  ALT Increase: >2x ULN and 2x baseline (number): 2
  ALT NS: >ULN and <2x baseline (%): (66.7%)
  ALT NS: >ULN and <2x baseline (number): 8
  ALT Within normal limits (%): (16.7%)
  ALT Within normal limits (number): 2
[1]; [8]
  ALT 1x-2x (%): (14.7%)
  ALT 1x-2x (number): 14
  ALT 2x-3x (%): (5.3%)
  ALT 2x-3x (number): 5
  ALT >3x (%): (1.1%)
  ALT >3x (number): 1
  ALT Within normal limits (%): (78.9%)
  ALT Within normal limits (number): 75
[2]; [9]
  Adverse events by patient, Cardiac, Drug Related: 3
  Adverse events by patient, Ear, Drug Related: 1
  Adverse events by patient, Eye, Drug Related: 1
  Adverse events by patient, GI, Drug Related: 13^b
  Adverse events by patient, General, Drug Related: 4
  Adverse events by patient, Heme, Drug Related: 0
  Adverse events by patient, Infection, Drug Related: 1
  Adverse events by patient, Injury, Drug Related: 1
  Adverse events by patient, Investigations, Drug Related: 8
  Adverse events by patient, Metabolism, Drug Related: 2
  Adverse events by patient, Musculoskeletal, Drug Related: 0
  Adverse events by patient, Neurologic, Drug Related: 7
  Adverse events by patient, Psych, Drug Related: 3
  Adverse events by patient, Renal, Drug Related: 0
  Adverse events by patient, Reproductive, Drug Related: 0
  Adverse events by patient, Respiratory, Drug Related: 0
  Adverse events by patient, Skin, Drug Related: 6^c
  Adverse events by patient, Vascular, Drug Related: 1
[2]; probably or possibly drug-related by blinded evaluator, listed as linezolid
  Adverse events by patient, GI, Drug Related: 13
[2]; safety population
  Adverse events by patient, Cardiac, Total: 4
  Adverse events by patient, Ear, Total: 2
  Adverse events by patient, Eye, Total: 1
  Adverse events by patient, GI, Total: 21
  Adverse events by patient, General, Total: 8
  Adverse events by patient, Heme, Total: 2
  Adverse events by patient, Infection, Total: 9
  Adverse events by patient, Injury, Total: 1
  Adverse events by patient, Investigations, Total: 11
  Adverse events by patient, Metabolism, Total: 7
  Adverse events by patient, Musculoskeletal, Total: 2
  Adverse events by patient, Neurologic, Total: 15
  Adverse events by patient, Psych, Total: 6
  Adverse events by patient, Renal, Total: 2
  Adverse events by patient, Reproductive, Total: 1
  Adverse events by patient, Respiratory, Total: 2
  Adverse events by patient, Skin, Total: 10
  Adverse events by patient, Vascular, Total: 1
  Patients with no adverse event (None), %: 49.1%
  Patients with no adverse event (None), number: 53
  Total Patients with 1 or more AE, %: 50.9%
  Total Patients with 1 or more AE, number: 55
B-Strep; ME population, B-Strep
  Clinical outcome Failure (number): 2
  Clinical outcome Success (number): 0
B-Strep; as determined in the trials of the Exemplification
  clinical success rate against B. streptococci: 0%
Mixed GPC
  Clinical outcome Failure (number): 2
  Clinical outcome Success (number): 9
